Test results taken from US12509460B2 (Skyhawk Therapeutics, Inc., priority 2019, dated 2025).
Read-outs that look alike come from different tables or passages of the source.

Key:
[1] = tested on: MDR1-MDCK cell monolayers; conditions: dog, MDCK-MDR1, 120 min, 5 μM, pH 7.4
Protocol: (§1) Example A13: Assessment of Blood-Brain-Barrier (BBB) Penetration Potential Via an MDCK-MDR1 Permeability Assay
(§2) The permeability of compounds is assessed for BBB penetration potential by use of an MDCK-MDR1 assay (Catalog EA203) performed by Absorption Systems, Exton PA.
(§3) Experimental Procedure: MDR1-MDCK cell monolayers are grown to confluence on collagen-coated, microporous membranes in 12-well assay plates. The permeability assay buffer is Hanks' balanced salt solution containing 10 mM HEPES and 15 mM glucose at a pH of 7.4. The buffer in the receiver chamber also contained 1% bovine serum albumin. The dosing solution concentration is 5 μM of test article in the assay buffer. Cell monolayers are dosed on the apical side (A-to-B) or basolateral side (B-to-A) and incubated at 37° C. with 5% CO2 in a humidified incubator. Samples are taken from the donor and receiver chambers at 120 minutes. Each determination is performed in duplicate. The flux of lucifer yellow is also measured post-experimentally for each monolayer to ensure no damage is inflicted to the cell monolayers during the flux period. All samples are assayed by LC-MS/MS using electrospray ionization.
(§4) The apparent permeability (Papp) and percent recovery are calculated as follows:
(§5) Analytical Method: Liquid Chromatography. Column: Waters ACQUITY UPLC BEH Phenyl 30 ×2.1 mm, 1.7 μm; M.P. Buffer. 25 mM ammonium formate buffer, pH 3.5; Aqueous Reservoir (A): 90% water, 10% buffer, Organic Reservoir (B): 90% acetonitrile, 10% buffer, Flow Rate: 0.7 mL/minute; Gradient Program:
(§6) • Total Run Time: 1.00 minute • Autosampler. 2 μL injection volume • Wash1: water/methanol/2-propanol:1/1/1; with 0.2% formic acid • Wash2: 0.1% formic acid in water • Brain Penetration • Potential Classification: A-B Papp≥3.0 and Efflux Ratio <3.0: High • A-B Papp≥3.0 and 10≥Efflux Ratio >3.0: Moderate • A-B Papp≥3.0 and Efflux Ratio≥10: Low • A-B Papp<3.0: Low

[2] = tested on: mHTT protein in GM04724 (CAG 70/20) Huntington's disease patient lymphoblast cells; experiment: mHTT protein assay, 2B7-MW1 assay via Mesoscale Discovery (MSD); format: cell-based, human
How it was run: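 Patient lymphoblasts treated 48 h with compound from 10 μM to 0.6 nM. mHTT quantified by MSD 2B7-MW1 immunoassay, whose signal depends on polyQ expansion and HTT size. Viability measured on a replicate plate by CellTiter Glo.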

[3] = tested on: SMN protein in spinal muscular atrophy (SMA) patient fibroblasts (GM03813, Coriell); experiment: SMN protein assay, Mesoscale Discovery (MSD); format: cell-based, human; conditions: for EC50: read-out: SMN2 protein EC50
How it was run: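 SMA patient fibroblasts (GM03813) seeded at 7000 cells/well and exposed to compound at 2.5 μM to 0.6 nM for 48 hours. Lysates assayed for SMN by MSD immunoassay, with absolute SMN amount calculated from a per-plate SMN standard curve (1 μg/ml to 19.5 pg/ml).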

MDR1 = experiment: in vitro; conditions: dog, MDCK-MDR1, pH 7.4
Protocol: as §1, §2, §3, §4, §5, §6

MDR1 (P-gp) = experiment: in vitro; conditions: dog, MDCK-MDR1, pH 7.4
Protocol: as §1, §2, §3, §4, §5, §6

[4] = GM04724 Huntington's disease patient lymphoblasts
[5] = SMA patient fibroblasts GM03813, 48 hours, MSD
[6] = GM04724 (CAG 70/20) Huntington's disease patient lymphoblasts
[7] = SMA patient fibroblasts (GM03813), 48 hours

Row | SMILES | MDCK-MDR1: % Recov A-B [1] [%] | MDCK-MDR1: % Recov B-A [1] [%] | mHTT protein EC50 [2, 4] | SMN2 protein EC50 [3, 5] | efflux ratio at 120 min, 5 μM (MDR1) | Papp A→B at 120 min, 5 μM (MDR1 (P-gp)) [×10⁻⁶ cm/s] | Papp B→A at 120 min, 5 μM (MDR1 (P-gp)) [×10⁻⁶ cm/s] | EC50 [3, 5] [nM] | mHTT protein EC50 [2, 6] | SMN2 protein EC50 [3, 7] | EC50 [2, 4] [nM] | EC50 [3, 7] [nM]
1 | O=c1c2cc(O)c(-c3ccc(N(C4CC4)[C@@H]4C[C@H]5CC[C@H](N5)[C@@H]4F)nn3)cc2ncn1CC(F)(F)F (single isomer, unassigned) [Compound 60A] | 94 | 100 | E (501 ≤ E ≤ 10.000) | E (501 ≤ E ≤ 10.000) | 151 | 0.44 | 65.9 |  |  |  |  | 
2 | CN(C)C(=O)c1cc(O)c(-c2ccc(N(C)[C@H]3C[C@@H]4CC[C@@H](N4)[C@H]3F)nn2)cc1F (single isomer, unassigned) [Compound 53B] | 100 | 112 | E (501 ≤ E ≤ 10.000) | E (501 ≤ E ≤ 10.000) | 153 | 0.27 | 41.8 |  |  |  |  | 
3 | CN(c1ccc(-c2cc3occc(=O)c3cc2O)nn1)[C@@H]1C[C@H]2CC[C@@H]([C@@H]1F)N2C (single isomer, unassigned) [Compound 94A] | 68 | 71 | E (501 ≤ E ≤ 10.000) |  | 7 | 4.99 | 33.9 | 101 to 500 |  |  |  | 
4 | CN(C)C(=O)c1cc2cc(O)c(-c3ccc(N(C)[C@@H]4C[C@H]5CC[C@@H]([C@@H]4F)N5C)nn3)cc2o1 (single isomer, unassigned) [Compound 106A] | 95 | 92 |  |  | 34 | 1.87 | 63.1 |  | E (501 ≤ E ≤ 10.000) | E (501 ≤ E ≤ 10.000) |  | 
5 | Cc1nc2cc(-c3ccc(N(C)[C@H]4C[C@@H]5CC[C@H]([C@H]4F)N5C)nn3)c(O)cc2c(=O)n1CC(F)(F)F (single isomer, unassigned) [Compound 130B] | 107 | 110 |  |  | 94 | 0.77 | 72.2 |  | E (501 ≤ E ≤ 10.000) | E (501 ≤ E ≤ 10.000) |  | 
6 | CN(c1ccc(-c2cc3ncn(CC(F)(F)F)c(=O)c3cc2O)nn1)[C@@H]1C[C@H]2CCC[C@@H]([C@@H]1F)N2C (single isomer, unassigned) [Compound 109A] | 76 | 81 |  |  | 23 | 2.72 | 63.3 |  | E (501 ≤ E ≤ 10.000) | E (501 ≤ E ≤ 10.000) |  | 
7 | CN1[C@H]2CC[C@@H]1[C@@H](F)[C@@H](N(c1ccc(-c3cc4oc(C(=O)N5CCC5)cc4cc3O)nn1)C1CC1)C2 (single isomer, unassigned) [Compound 92B] | 94 | 105 |  |  | 45 | 1.16 | 52.3 | 101 to 500 |  |  | 101 to 500 | 
8 | CN(c1ccc(-c2ccc(Oc3nccn3C)cc2O)nn1)[C@H]1C[C@@H]2CC[C@@H](N2)[C@H]1F (single isomer, unassigned) [Compound 123B] | 92 | 102 |  |  | 89 | 0.66 | 58.7 |  | E (501 ≤ E ≤ 10.000) |  |  | 101 to 500
9 | CN(c1ccc(-c2cc3ccn(C)c(=O)c3s2)nn1)[C@H]1C[C@@H]2CC[C@@H](N2)[C@H]1F (single isomer, unassigned) [Compound 67B] | 91 | 96 | E (501 ≤ E ≤ 10.000) | E (501 ≤ E ≤ 10.000) | 86 | 0.47 | 40.9 |  |  |  |  | 
10 | CN(C)C(=O)c1cc(O)c(-c2ccc(N(C)[C@@H]3C[C@H]4CC[C@H](N4)[C@@H]3F)nn2)cc1F (single isomer, unassigned) [Compound 53A] | 96 | 114 | E (501 ≤ E ≤ 10.000) | E (501 ≤ E ≤ 10.000) | 127 | 0.32 | 41 |  |  |  |  | 
11 | CN(C)C(=O)c1cc2cc(O)c(-c3ccc(N(C4CC4)[C@@H]4C[C@H]5CC[C@H](N5)[C@@H]4F)nn3)cc2o1 [Compound 86A, 6-(6-(cyclopropyl((1S,2S,3R,5R)-2-fluoro-8-azabicyclo[3.2.1]octan-3-yl)amino)pyridazin-3-yl)-5-hydroxy-N,N-dimethylbenzofuran-2-carboxamide] | 93 | 90 | E (501 ≤ E ≤ 10.000) | E (501 ≤ E ≤ 10.000) | 60 | 1.05 | 62.5 |  |  |  |  | 
12 | CNC(=O)c1ccc(-c2ccc(N(C)[C@@H]3C[C@H]4CC[C@H](N4)[C@@H]3F)nn2)c(O)c1 (single isomer, unassigned) [Compound 77A] | 104 | 110 | E (501 ≤ E ≤ 10.000) |  | 124 | 0.29 | 36.3 | 101 to 500 |  |  |  | 
13 | CN(c1ccc(-c2ccc(-n3ccnc3)cc2O)nn1)[C@H]1C[C@@H]2CC(F)(F)[C@H](C1)N2 [Compound 13B, 2-(6-(((1R,3S,5S)-6,6-difluoro-8-azabicyclo[3.2.1]octan-3-yl)(methyl)amino)pyridazin-3-yl)-5-(1H-imidazol-1-yl)phenol] | 90 | 97 |  | E (501 ≤ E ≤ 10.000) | 6 | 9.96 | 55.7 |  |  |  | 101 to 500 | 
14 | CN(c1ccc(-c2ccc(Oc3cnn(C)c3)cc2O)nn1)[C@H]1C[C@@H]2CC[C@@H](N2)[C@H]1F (single isomer, unassigned) [Compound 91B] | 106 | 102 | E (501 ≤ E ≤ 10.000) | E (501 ≤ E ≤ 10.000) | 19 | 3.94 | 73.3 |  |  |  |  | 
15 | CCc1cn(-c2ccc(-c3ccc(N(C)[C@H]4C[C@@H]5CC(F)(F)[C@H](C4)N5)nn3)c(O)c2)nn1 (single isomer, unassigned) [Compound 64B] | 69 | 83 |  | E (501 ≤ E ≤ 10.000) | 10 | 5.61 | 58.6 |  |  |  | 101 to 500 | 
16 | CN(c1ccc(-c2cc3ccn(C)c(=O)c3cc2O)nn1)[C@@H]1C[C@H]2CC[C@@H]([C@@H]1F)N2C (single isomer, unassigned) [Compound 97A] | 73 | 74 | E (501 ≤ E ≤ 10.000) |  | 20 | 1.96 | 40.3 | 101 to 500 |  |  |  | 
17 | CN(c1ccc(-c2cc3c(=O)n(C)cnc3cc2O)nn1)[C@@H]1C[C@H]2CC[C@@H]([C@@H]1F)N2C [Compound 102A, 6-(6-(((1S,2S,3R,5R)-2-fluoro-8-methyl-8-azabicyclo[3.2.1]octan-3-yl)(methyl)amino)pyridazin-3-yl)-7-hydroxy-3-methylquinazolin-4(3H)-one] | 88 | 92 |  |  | 41 | 1.43 | 58.1 |  | E (501 ≤ E ≤ 10.000) |  |  | 101 to 500
18 | Cc1nc2cc(-c3ccc(N(C)[C@@H]4C[C@H]5CC[C@@H]([C@@H]4F)N5C)nn3)c(O)cc2c(=O)n1CC(F)(F)F (single isomer, unassigned) [Compound 130A] | 105 | 116 |  |  | 113 | 0.67 | 75.4 |  | E (501 ≤ E ≤ 10.000) | E (501 ≤ E ≤ 10.000) |  | 
19 | CN(c1ccc(-c2cc3ncn(CC(F)(F)F)c(=O)c3cc2O)nn1)[C@H]1C[C@@H]2CC(F)(F)[C@H](C1)N2C (single isomer, unassigned) [Compound 110B] | 86 | 93 |  |  | 4 | 11.7 | 47.4 |  | E (501 ≤ E ≤ 10.000) | E (501 ≤ E ≤ 10.000) |  | 
20 | CN(c1ccc(-c2ccc(Oc3nccn3C)cc2O)nn1)[C@@H]1C[C@H]2CC[C@H](N2)[C@@H]1F (single isomer, unassigned) [Compound 123A] | 97 | 102 |  |  | 79 | 0.76 | 59.7 |  | E (501 ≤ E ≤ 10.000) | E (501 ≤ E ≤ 10.000) |  | 
